Experimental data published in US20150329558A1, “FUSED HETEROCYCLIC COMPOUNDS AS ION CHANNEL MODULATORS” (Gilead Sciences, Inc., priority 2011, published 2015).
Read-outs that look alike come from different tables or passages of the source.

Legend:
[1] = biological target: wild-type human cardiac sodium channel, hNav1.5 (late INa) (Homo sapiens, UniProt Q14524); test: Late INa screening assay (QPatch whole cell patch clamp); format: cell-based
Method in brief: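 HEK293 cells stably expressing hNav1.5 alpha subunit without beta subunits, QPatch automated whole-cell clamp at 23-25° C, CsF-based internal solution pH 7.4. Late INa induced by 10 μM tefluthrin; 250 ms steps to −20 mV from −120 mV at 0.1 Hz, compounds at 1 μM. Percent block of mean current 225–250 ms into the step.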

[2] = Microsomal stability assay, dog; format: in vitro ADME; details: metabolic stability, dog liver microsomes 0.5 mg/mL, substrate 3 uM
Method in brief: (§1)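 Liver microsomes at 0.5 mg/mL protein in 100 mM KPO4 buffer, incubated with 3 uM compound and NADPH-regenerating system, run in duplicate. Samples taken at 2, 12, 25, 45 and 65 min and quenched in MeOH/ACN/water before analysis.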

[3] = Microsomal stability assay, human; format: in vitro ADME; details: metabolic stability, human liver microsomes 0.5 mg/mL, substrate 3 uM
Method in brief: as §1

hERG potassium channel = hERG potassium channel (Homo sapiens, UniProt Q12809); test: hERG screening assay (PatchXpress, CHO cells); format: cell-based; details: % inhibition at 1 μM
Experimental: Compounds were also tested for their effect to block the hERG K^+ channel.
Compounds were screened to test their activity in blocking the hERG potassium channel at AVIVA Biosciences (San Deigo, Calif., USA). The hERG channel is heterologously expressed in a CHO (Chinese Hamster Ovary) cell line. Cells were maintained with standard tissue culture procedures and stable channel expression was maintained with 500 μg/mL G418 in the culture medium. Cells were harvested for testing on the PatchXpress 7000A automated patch clamp with Accumax (Innovative Cell Technologies, San Diego, Calif.) to isolate single cells.
The following solutions were used for electrophysiological recordings. The external solution contained: 2 mM CaCl2; 2 mM MgCl2; 4 mM KCl; 150 mM NaCl; 10 mM Glucose; 10 mM HEPES (pH 7.4 with 1M NaOH; osmolarity, ˜310 mOsm). The internal solution contained: 140 mM KCl, 10 mM MgCl2, 6 mM EGTA, 5 mM HEPES, 5 mM ATP (pH adjusted to 7.25 with KOH; osmolarity, ˜295 mOsm).
hERG channels were activated when the voltage was first stepped to −50 mV for 300 ms from the −80 mV holding potential and then stepped to +20 mV for 5 seconds. At +20 mV the channels open and then largely inactivate, so the currents are relatively small. Upon returning to −50 mV from +20 mV, hERG currents transiently become much larger as inactivation is rapidly removed and then the channel closes. The first step to −50 mV for 300 ms was used as a baseline for measuring the peak amplitude during the step to −50 mV after channel activation. The peak tail current at −50 mV was measured both under control conditions and after addition of compound, each cell serving as its own control.
All compounds were prepared as 10 mM DMSO stocks in glass vials. Stock solutions were mixed by vigorous vortexing and sonication for about 2 minutes at room temperature. For testing, compounds were diluted in glass vials using an intermediate dilution step in pure DMSO and then further diluted to working concentrations in external solution. Dilutions were prepared no longer than 20 minutes before use.
For the electrophysiological recordings, after achieving the whole-cell configuration, cells were monitored for 90 seconds to assess stability and washed with external solution for 66 seconds. The voltage protocol described above was then applied to the cells every 12 seconds and throughout the whole procedure. Only cells with stable recording parameters and meeting specified health criteria were allowed to enter the compound addition procedure.
External solution containing 0.1% DMSO (vehicle) was applied to the cells first to establish the control peak current amplitude. After allowing the current to stabilize for 3 to 5 minutes, 1 μM and then 10 μM test compounds were applied. Each compound concentration was added 4 times and cells were kept in test solution until the effect of the compound reached steady state or for a maximum of 12 minutes. After addition of test compound, a positive control (1 μM Cisapride) was added and must block >95% of the current for the experiment to be considered valid. Washout in the external solution compartment was performed until the recovery of the current reached steady state.

[4] = Microsomal stability assay, rat; format: in vitro ADME; details: metabolic stability, rat liver microsomes 0.5 mg/mL, substrate 3 uM
Method in brief: as §1

Human Nav1.2 = biological target: T1, Human Nav1.2 (Homo sapiens, UniProt Q99250); test: Nav1.2 use-dependent block, whole-cell voltage clamp; format: cell-based; details: use-dependent block 10 Hz, read-out: NAv1.2*-CHAN TEST-UDB-10 HZ-
T1 construct: expressed in transfected cells
Source text: Wild-type (WT) cDNA stably transfected in Chinese hamster ovary (CHO) cells is used to record INa. Unless otherwise noted, all reagents are purchased from Sigma-Aldrich (St Louis, Mo., U.S.A.).
Whole-cell voltage-clamp recordings are used to measure the biophysical properties of WT. Briefly, the pipette solution consists of (in mM) 110 CsF, 10 NaF, 20 CsCl, 2 EGTA, 10 HEPES, with a pH of 7.35 and osmolarity of 300 mOsmol/kg. The bath (control) solution contains in (mM): 145 NaCl, 4 KCl, 1.8 CaCl2, 1 MgCl2, 10 dextrose, 10 HEPES, with a pH of 7.35 and osmolarity of 310 mOsmol/kg. Cells are allowed to stabilize for 10 min after establishment of the whole-cell configuration before current is measured. Series resistance is compensated 90% to assure that the command potential is reached within microseconds with a voltage error <2 mV. Leak currents are subtracted by using an online P/4 procedure and all currents are low-pass Bessel filtered at 5 kHz and digitized at 50 kHz.
Tonic block of peak current is measured using a step to −10 mV (20 ms) from a holding potential of −120 mV (0.2 Hz). Use-dependent block of peak current is measured during pulse number 300 of a pulse train (−10 mV, 5 ms, 300 pulses, 10 Hz or 25 Hz) from a holding potential of −120 mV. Two sequential pulse train stimulations are averaged to obtain mean current traces for each recording condition, which are then used for offline subtraction and analysis.
For use-dependent studies, cells are stimulated with depolarizing pulse trains (−10 mV, 5 ms, 300 pulses, 10 and 25 Hz) from a holding potential of −120 mV. Currents are then normalized to the peak current recorded in response to the first pulse in each frequency train. For tonic block studies, peak current is evaluated in response to a 20 ms depolarization to −10 mV (0.2 Hz). Data analysis is performed using Clampfit 9.2 (Axon Instruments, Union City, Calif., U.S.A), Excel 2002 (Microsoft, Seattle, Wash., U.S.A.), and OriginPro 7.0 (OriginLab, Northampton, Mass., U.S.A) software. Results are presented as mean±SEM.
A stock solution of 10 mM compound of Formula I is prepared in 0.1 M HCl or DMSO. A fresh dilution of the compound of Formula I in the bath solution is prepared every experimental day and the pH is readjusted to 7.35 as necessary. The final DMSO concentration was kept at 0.1% in all solutions. Direct application of the perfusion solution to the clamped cell is achieved using the Perfusion Pencil system (Automate, Berkeley, Calif.). Direct cell perfusion is driven by gravity at a flow rate of 350 μL/min using a 250 micron tip. This system sequesters the clamped cell within a perfusion stream and enables complete solution exchange within 1 second. The clamped cell is perfused continuously starting immediately after establishing the whole-cell configuration. Control currents are measured during control solution perfusion.
Solutions are perfused for three minutes prior to current recordings to allow equilibrium (tonic) drug block. Tonic block of peak currents is measured from this steady-state condition. Three sequential current traces are averaged to obtain a mean current for each recording. The mean current traces are utilized for offline analysis. Use-dependent block of peak current is measured during pulse number 300 of the pulse train, (−10 mV, 5 ms, 300 pulses, 10 Hz) from a holding potential of −120 mV. Two sequential pulse train stimulations are averaged to obtain mean current traces for each recording condition, which are then used for offline subtraction and analysis. Where appropriate, concentration inhibition curves are fit with the Hill equation: I/Imax=1/[1+10̂(log IC50−I)*k], where IC50 is the concentration that produces half inhibition and k is the Hill slope factor.

hNav1.1 = biological target: T2, hNav1.1 (Homo sapiens, UniProt P35498); test: Nav1.1 use-dependent block, whole-cell voltage clamp; format: cell-based; details: use-dependent block 10 Hz, read-out: NAv1.1*-CHAN TEST-UDB-10 HZ-
T2 construct: expressed in transfected cells; host or cells: HEK293, transient transfection (α1:β1:β2 = 10:1:1)

[5] = biological target: wild-type human cardiac sodium channel, hNav1.5 (peak INa) (Homo sapiens, UniProt Q14524); test: Peak INa screening assay (tonic and use-dependent block); format: cell-based; details: 1 μM
Method in brief: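 Whole-cell automated patch clamp, HEK293 stably expressing hNav1.5 alpha without beta subunits, 23-25° C, holding −100 mV; bath Na⁺ reduced to 20 mM, CsF-based intracellular pH 7.4. Test compound 1 μM; tonic block at 0.1 Hz, use-dependent block at 3 Hz, % peak block after rundown correction.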

[6] = % inhibition at 1 μM, read-out: NAv1.5*-LATE-
[7] = percent block of late INa, compound at 1 μM, 10 μM Tefluthrin, HEK293 hNav1.5, read-out: Late INa 1 μM
[8] = tonic block of peak INa, 0.1 Hz, read-out: Peak TB 1 μM
[9] = use-dependent block of peak INa, 3 Hz, read-out: Peak UDB 1 μM

Chain of hERG potassium channel (Q12809 whole entry): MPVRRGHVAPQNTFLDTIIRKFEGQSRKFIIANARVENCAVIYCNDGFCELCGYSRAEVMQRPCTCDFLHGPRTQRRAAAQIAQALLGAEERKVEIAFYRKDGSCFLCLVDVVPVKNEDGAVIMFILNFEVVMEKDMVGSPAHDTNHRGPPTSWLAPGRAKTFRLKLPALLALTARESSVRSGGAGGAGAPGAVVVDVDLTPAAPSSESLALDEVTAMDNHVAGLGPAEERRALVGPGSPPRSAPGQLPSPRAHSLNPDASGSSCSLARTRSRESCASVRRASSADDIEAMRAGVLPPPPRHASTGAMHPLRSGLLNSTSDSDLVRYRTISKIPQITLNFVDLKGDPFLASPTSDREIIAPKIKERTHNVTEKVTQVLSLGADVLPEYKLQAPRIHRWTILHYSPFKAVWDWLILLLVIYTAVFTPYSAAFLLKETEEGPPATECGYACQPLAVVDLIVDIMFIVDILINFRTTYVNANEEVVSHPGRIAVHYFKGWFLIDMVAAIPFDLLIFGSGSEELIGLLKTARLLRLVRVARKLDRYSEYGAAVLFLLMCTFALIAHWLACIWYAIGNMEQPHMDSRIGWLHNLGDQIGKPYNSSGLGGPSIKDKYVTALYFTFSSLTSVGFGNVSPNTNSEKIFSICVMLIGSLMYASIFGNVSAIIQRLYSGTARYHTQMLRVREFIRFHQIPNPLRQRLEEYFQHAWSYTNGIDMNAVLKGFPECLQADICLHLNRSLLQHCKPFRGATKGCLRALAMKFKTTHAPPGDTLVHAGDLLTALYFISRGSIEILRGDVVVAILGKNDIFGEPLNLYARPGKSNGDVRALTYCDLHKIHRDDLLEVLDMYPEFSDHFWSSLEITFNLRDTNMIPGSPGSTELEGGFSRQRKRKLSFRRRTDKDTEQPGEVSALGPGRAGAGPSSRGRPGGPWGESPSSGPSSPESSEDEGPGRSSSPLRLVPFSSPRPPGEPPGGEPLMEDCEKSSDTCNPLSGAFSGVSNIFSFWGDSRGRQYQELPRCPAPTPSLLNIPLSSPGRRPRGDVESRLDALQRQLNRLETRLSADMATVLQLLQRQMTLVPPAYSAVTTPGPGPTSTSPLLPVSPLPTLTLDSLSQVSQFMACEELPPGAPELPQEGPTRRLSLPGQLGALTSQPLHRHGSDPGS
Chain of wild-type human cardiac sodium channel, hNav1.5 (peak INa) (Q14524 whole entry): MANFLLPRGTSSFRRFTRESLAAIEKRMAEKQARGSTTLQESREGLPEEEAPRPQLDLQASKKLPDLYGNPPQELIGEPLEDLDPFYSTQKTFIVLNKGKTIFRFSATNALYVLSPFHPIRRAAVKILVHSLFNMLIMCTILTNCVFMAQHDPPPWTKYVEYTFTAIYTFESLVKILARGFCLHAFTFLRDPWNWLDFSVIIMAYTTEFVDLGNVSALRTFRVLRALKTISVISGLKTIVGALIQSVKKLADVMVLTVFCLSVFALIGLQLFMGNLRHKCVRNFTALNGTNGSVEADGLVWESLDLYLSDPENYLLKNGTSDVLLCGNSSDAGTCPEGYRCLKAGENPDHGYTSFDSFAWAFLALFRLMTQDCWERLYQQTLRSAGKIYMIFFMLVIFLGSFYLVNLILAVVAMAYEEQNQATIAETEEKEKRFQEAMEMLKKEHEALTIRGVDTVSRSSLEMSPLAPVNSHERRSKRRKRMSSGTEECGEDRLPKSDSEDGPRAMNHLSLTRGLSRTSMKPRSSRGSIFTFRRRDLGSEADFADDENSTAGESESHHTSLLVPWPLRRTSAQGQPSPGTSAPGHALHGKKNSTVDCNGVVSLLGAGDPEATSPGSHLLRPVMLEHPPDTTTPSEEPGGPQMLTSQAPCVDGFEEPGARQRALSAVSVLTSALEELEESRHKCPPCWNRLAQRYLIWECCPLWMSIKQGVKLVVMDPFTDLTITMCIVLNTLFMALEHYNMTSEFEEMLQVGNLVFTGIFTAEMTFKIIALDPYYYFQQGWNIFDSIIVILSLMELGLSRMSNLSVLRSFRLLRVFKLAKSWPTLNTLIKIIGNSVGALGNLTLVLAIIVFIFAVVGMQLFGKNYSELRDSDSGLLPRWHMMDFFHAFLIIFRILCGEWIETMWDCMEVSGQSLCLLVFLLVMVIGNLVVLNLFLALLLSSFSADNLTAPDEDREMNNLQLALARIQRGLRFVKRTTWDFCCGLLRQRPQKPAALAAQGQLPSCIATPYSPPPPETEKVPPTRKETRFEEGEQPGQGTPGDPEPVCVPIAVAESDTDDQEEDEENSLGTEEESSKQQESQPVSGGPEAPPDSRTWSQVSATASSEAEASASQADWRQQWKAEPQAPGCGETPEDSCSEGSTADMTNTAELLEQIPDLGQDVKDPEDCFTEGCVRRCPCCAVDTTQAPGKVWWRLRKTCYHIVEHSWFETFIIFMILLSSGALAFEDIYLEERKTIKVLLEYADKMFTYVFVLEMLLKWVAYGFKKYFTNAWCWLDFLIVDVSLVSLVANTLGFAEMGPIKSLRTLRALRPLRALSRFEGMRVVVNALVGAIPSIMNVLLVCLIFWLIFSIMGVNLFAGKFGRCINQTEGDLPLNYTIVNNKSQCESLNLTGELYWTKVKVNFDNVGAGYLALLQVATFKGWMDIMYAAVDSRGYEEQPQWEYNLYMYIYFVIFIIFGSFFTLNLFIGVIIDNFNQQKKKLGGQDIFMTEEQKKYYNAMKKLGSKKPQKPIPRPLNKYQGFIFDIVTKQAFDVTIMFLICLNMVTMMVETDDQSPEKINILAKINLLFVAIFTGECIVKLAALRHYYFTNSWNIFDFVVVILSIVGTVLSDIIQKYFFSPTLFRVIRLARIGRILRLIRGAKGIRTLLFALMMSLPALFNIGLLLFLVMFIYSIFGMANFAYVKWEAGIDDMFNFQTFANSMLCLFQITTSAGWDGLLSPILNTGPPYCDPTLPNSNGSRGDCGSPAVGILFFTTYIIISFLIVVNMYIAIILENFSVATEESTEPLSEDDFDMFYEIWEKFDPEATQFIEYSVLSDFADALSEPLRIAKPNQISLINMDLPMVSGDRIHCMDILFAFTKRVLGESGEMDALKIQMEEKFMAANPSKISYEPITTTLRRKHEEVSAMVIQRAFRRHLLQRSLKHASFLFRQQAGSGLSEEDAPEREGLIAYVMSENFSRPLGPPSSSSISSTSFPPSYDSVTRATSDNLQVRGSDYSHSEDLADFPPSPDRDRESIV
T1 sequence (Q99250 whole entry): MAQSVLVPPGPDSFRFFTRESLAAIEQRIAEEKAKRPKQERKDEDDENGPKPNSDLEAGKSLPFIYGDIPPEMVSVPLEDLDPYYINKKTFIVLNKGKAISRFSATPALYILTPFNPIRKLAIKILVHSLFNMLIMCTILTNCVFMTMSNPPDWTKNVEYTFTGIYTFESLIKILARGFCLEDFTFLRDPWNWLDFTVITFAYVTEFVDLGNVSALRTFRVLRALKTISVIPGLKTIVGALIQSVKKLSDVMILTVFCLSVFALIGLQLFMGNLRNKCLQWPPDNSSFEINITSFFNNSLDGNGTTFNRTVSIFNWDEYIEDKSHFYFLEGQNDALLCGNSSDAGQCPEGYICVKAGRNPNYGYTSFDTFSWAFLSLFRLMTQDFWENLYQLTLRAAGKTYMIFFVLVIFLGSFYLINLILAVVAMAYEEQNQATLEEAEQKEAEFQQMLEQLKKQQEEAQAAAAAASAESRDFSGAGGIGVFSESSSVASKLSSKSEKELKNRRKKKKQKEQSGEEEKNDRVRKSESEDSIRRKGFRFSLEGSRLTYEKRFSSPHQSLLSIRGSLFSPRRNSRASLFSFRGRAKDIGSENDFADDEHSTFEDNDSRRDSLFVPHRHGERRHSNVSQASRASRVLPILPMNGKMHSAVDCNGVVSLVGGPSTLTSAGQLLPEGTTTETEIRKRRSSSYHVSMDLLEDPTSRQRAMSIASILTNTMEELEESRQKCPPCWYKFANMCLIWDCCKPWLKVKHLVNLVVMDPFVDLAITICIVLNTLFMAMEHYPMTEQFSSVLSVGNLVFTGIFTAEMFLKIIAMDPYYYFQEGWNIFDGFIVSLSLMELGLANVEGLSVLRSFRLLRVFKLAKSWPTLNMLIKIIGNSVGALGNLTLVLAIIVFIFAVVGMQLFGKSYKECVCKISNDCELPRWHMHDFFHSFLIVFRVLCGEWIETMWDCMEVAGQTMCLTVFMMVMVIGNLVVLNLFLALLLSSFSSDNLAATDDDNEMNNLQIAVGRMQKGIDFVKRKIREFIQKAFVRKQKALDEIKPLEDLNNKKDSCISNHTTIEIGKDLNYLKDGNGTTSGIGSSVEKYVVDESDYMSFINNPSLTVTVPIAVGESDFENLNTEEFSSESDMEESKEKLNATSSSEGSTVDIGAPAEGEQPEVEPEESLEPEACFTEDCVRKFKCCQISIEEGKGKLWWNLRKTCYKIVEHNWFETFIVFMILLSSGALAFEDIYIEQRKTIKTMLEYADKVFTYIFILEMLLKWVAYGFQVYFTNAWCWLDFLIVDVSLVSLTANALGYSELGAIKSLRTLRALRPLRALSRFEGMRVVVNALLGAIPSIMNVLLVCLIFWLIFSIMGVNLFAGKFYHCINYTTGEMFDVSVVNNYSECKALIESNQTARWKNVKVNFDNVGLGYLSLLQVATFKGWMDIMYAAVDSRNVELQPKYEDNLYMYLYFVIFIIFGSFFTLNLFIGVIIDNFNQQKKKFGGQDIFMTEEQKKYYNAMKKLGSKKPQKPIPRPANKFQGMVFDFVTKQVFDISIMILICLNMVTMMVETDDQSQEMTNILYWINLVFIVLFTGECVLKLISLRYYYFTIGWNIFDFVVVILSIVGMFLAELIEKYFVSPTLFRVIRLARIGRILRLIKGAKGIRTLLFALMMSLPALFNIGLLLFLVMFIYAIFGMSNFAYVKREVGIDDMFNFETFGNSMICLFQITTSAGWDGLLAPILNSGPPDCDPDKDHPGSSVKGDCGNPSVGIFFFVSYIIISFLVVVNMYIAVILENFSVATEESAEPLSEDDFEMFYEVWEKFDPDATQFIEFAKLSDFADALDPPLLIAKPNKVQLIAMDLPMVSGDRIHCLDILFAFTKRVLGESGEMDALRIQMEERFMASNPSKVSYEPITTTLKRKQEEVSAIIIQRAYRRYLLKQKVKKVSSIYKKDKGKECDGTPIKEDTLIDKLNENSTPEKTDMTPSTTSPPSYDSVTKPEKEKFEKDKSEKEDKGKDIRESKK

Row | MS Dog THalf [2] [min] | MS Human THalf [3] [min] | MS Rat THalf [4] [min] | inhibition at 1 µM (Human Nav1.2) [%] | inhibition at 1 µM (hNav1.1) [%] | Compound | inhibition at 1 µM [1, 6] [%] | inhibition at 1 µM [1, 7] [%] | HERG* (hERG potassium channel) [%] | inhibition at 1 µM [5, 8] [%] | inhibition at 1 µM [5, 9] [%]
1 | > 395 | > 395 | 181 |  |  | O=c1c2cc(-c3ccc(OC(F)(F)F)cc3)ccc2nnn1Cc1nnc(C2CC2)s1 [II-66, 3-((5-cyclopropyl-1,3,4-thiadiazol-2-yl)methyl)-6-(4-(trifluoromethoxy)phenyl)benzo[d][1,2,3]triazin-4(3H)-one] | 39 | 39 | 23 |  | 
2 | 356 | 362 | > 395 |  |  | O=c1c2cc(-c3ccc(OC(F)(F)F)cc3)ccc2nnn1CCOc1nccc(-c2noc(C3CC3)n2)n1 [II-60, 3-(2-(4-(5-cyclopropyl-1,2,4-oxadiazol-3-yl)pyrimidin-2-yloxy)ethyl)-6-(4-(trifluoromethoxy)phenyl)benzo[d][1,2,3]triazin-4(3H)-one] | 32 | 32 | 31 |  | 
3 | 68 | 333 | 222 | 5 | 27.6 | Cc1noc(Cn2ncc3ccc(-c4ccc(OC(F)(F)F)cc4)cc3c2=O)n1 [III-2, 2-((3-methyl-1,2,4-oxadiazol-5-yl)methyl)-7-(4-(trifluoromethoxy)phenyl)phthalazin-1(2H)-one] | 40 | 40 |  |  | 
4 | 85 | > 395 | 296 |  |  | O=c1c2cc(-c3ccc(OC(F)(F)F)cc3)ccc2cnn1Cc1ncc(Cl)cn1 [III-35, 2-((5-chloropyrimidin-2-yl)methyl)-7-(4-(trifluoromethoxy)phenyl)phthalazin-1 (2H)-one] | 38 | 38 | 17 |  | 
5 | 62 | 128 | 42 |  |  | Cc1nc(Cn2nnc3ccc(-c4ccc(OC(F)(F)F)cc4)cc3c2=O)co1 [II-99, 3-((2-methyloxazol-4-yl)methyl)-6-(4-(trifluoromethoxy)phenyl)benzo[d][1,2,3]triazin-4(3H)-one] |  | 47 |  | 9 | 0
6 | 83 | 268 | 43 |  |  | O=c1c2cc(-c3ccc(OC(F)(F)F)cc3)ccc2cnn1Cc1nccc(OCC2CC2)n1 [III-27, 2((4-(cyclopropylmethoxy)pyrimidin-2-yl)methyl)-7-(4-(trifluoromethoxy)phenyl)phthalazin-1 (2H)-one] |  | 52 |  | 15 | 15
